Data from patent US20210285024A1, “In vitro Screening Assay of TCPase Modulators” (CENTRE NATIONAL DE LA RECHERCHE SCIENTIFIQUE (CNRS), priority 2018, published 2021).

Key:
[1] = system: HEK293T cells deficient for VASH1 and VASH2; conditions: Nieuwenhuis et al., 2017; cited from earlier work
[2] = target: SVBP-VASH2 complex (Homo sapiens, UniProt Q86V25); assay: Detyrosination assay using tubulin purified from Sf9 cells and recombinant SVBP-VASH2 complex; conditions: 0.1 μM and 10 μM; 15 min at 37° C.; microtubules from Sf9 tubulin; western blot
Sequence of SVBP-VASH2 complex (Q86V25 whole entry): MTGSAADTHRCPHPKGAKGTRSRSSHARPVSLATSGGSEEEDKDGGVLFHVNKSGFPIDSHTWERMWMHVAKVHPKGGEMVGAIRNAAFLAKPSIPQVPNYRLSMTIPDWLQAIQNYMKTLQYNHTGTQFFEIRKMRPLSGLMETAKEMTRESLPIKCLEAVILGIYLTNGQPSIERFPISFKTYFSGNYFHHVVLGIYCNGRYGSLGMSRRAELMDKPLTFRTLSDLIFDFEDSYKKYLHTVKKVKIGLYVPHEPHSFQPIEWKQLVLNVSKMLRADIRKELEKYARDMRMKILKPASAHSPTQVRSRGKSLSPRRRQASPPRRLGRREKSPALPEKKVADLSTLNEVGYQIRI
Sequence of SVBP-VASH2 complex (Q8N300 whole entry partner): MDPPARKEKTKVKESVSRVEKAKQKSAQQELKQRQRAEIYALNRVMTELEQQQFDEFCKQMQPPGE
Experimental: FIG. 17: Detyrosination assay performed using tubulin purified from Sf9 cells and recombinant SVBP-VASH2 complex in absence or presence of putative inhibitors of detyrosinase. […] FIG. 17b: Western blot. FIG. 17c: Representation of relative optical density (detyrosination/tubulin).
A negative control sample consisting of the tubulin in the reaction buffer in absence of the detyrosinase (SVBP-VASH2 complex) was also analysed by western blotting (FIG. 17b).

Compound	alpha-tubulin detyrosination [1]	reduction of the detyrosinating activity of SVBP-VASH2 complex [2]
CC(=O)O[C@H]1C(=O)[C@@]2(C)[C@H]([C@H](OC(=O)c3ccccc3)[C@]3(O)C[C@H](OC(=O)[C@H](O)[C@@H](NC(=O)c4ccccc4)c4ccccc4)C(C)=C1C3(C)C)[C@]1(OC(C)=O)CO[C@@H]1C[C@@H]2O [Taxol, paclitaxel]	robust increase	–
C=C1C(=O)O[C@@H]2C[C@@]3(C)CCC[C@H](C)C3=C[C@H]12 [alantolactone, Alantolactone]	–	did not result in any significant reduction
C=C1C(=O)O[C@@H]2/C=C(\C)CC/C=C(\C)CC[C@@H]12 [costunolide, Costunolide]	–	did not result in any significant reduction
